In patent US20160287589A1, “SUBSTITUTED-IMIDAZOPYRIDAZINES” (BAYER PHARMA AKTIENGESELLSCHAFT, priority 2013, published 2016):

Tests used:
MKNK1 [1] = molecular target: T1, MKNK1 (Homo sapiens, UniProt Q9BUB5, T385D); experiment: MKNK1 kinase assay (MKNK1 TR-FRET assay); assay type: biochemical; conditions: 10 μM ATP, 15 min preincubation
T1 construct: GST (N); purchased Carna Biosciences 02-145; host or cells: insect cells (baculovirus expression system)

MKNK1 [2] = molecular target: T1, MKNK1; experiment: MKNK1 kinase high ATP assay (TR-FRET-based); assay type: biochemical; conditions: 2 mM ATP, 15 min preincubation
How it was run: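 TR-FRET read-out (anti-phospho-S6 Ser236 antibody, Eu/XL665) of biotin-peptide phosphorylation (0.06 μM) at high ATP (2 mM final). Enzyme was GST-MKNK1 full length, T344D, pre-bound to compound for 15 min before a 30 min reaction at 22 °C, pH 7.5. Inhibition scaled between no-inhibitor (0%) and no-enzyme (100%) wells.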

T1 sequence (Q9BUB5 1-424 isoform Q9BUB5-2 T344D): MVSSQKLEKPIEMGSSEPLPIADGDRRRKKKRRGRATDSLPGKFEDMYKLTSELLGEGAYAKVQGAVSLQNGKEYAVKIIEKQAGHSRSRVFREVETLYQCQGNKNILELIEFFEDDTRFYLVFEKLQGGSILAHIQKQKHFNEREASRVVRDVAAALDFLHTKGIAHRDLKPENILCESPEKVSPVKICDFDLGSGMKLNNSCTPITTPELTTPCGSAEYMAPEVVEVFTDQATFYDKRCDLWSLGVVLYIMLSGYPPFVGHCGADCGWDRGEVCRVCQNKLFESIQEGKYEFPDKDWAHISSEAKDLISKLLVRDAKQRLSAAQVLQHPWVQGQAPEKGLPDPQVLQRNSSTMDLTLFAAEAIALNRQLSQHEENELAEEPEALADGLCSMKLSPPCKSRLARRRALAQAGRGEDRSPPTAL

Row | IC50 (MKNK1 [1]; Table 1c) | IC50 (MKNK1 [2]; Table 2c) | IC50 (MKNK1 [1]; Table 1d) | IC50 (MKNK1 [2]; Table 2d) | SMILES
1 | 21.5 nM | 39.9 nM | – | – | C[C@H](N)COc1ccc2ncc(-c3cc4c(N5CCO[C@H](C)C5)nccc4o3)n2n1 [III-117, (2S)-1-[(3-{4-[(2R)-2-methylmorpholin-4-yl]furo[3,2-c]pyridin-2-yl}imidazo[1,2-b]pyridazin-6-yl)oxy]propan-2-amine]
2 | 2.5 nM | 1 nM | – | – | C[C@@H]1CN(c2nccc3oc(-c4cnc5ccc(OC[C@H]6CCC(=O)N6)nn45)cc23)CCO1 [III-118, (5R)-5-{[(3-{4-[(2R)-2-methylmorpholin-4-yl]furo[3,2-c]pyridin-2-yl}imidazo[1,2-b]pyridazin-6-yl)oxy]methyl}pyrrolidin-2-one]
3 | 8.8 nM | 17 nM | – | – | C[C@@H]1CN(c2nccc3oc(-c4cnc5ccc(OCCCS(C)(=O)=O)nn45)cc23)CCO1 [III-119, 3-{4-[(2R)-2-methylmorpholin-4-yl]furo[3,2-c]pyridin-2-yl}-6-[3-(methylsulfonyl)propoxy] imidazo[1,2-b]pyridazine]
4 | 11.2 nM | 7.4 nM | – | – | COc1ccc2ncc(-c3cc4c(N5CCO[C@H](C)C5)nccc4o3)n2n1 [III-120, 6-methoxy-3-{4-[(2R)-2-methylmorpholin-4-yl]furo[3,2-c]pyridin-2-yl}imidazo[1,2-b]pyridazine]
5 | 11.6 nM | 12.8 nM | – | – | C[C@@H]1CN(c2nccc3oc(-c4cnc5ccc(OC[C@@H](C)N)nn45)cc23)CCO1 [III-121, (2R)-1-[(3-{4-[(2R)-2-methylmorpholin-4-yl]furo[3,2-c]pyridin-2-yl}imidazo[1,2-b]pyridazin-6-yl)oxy]propan-2-amine]
6 | 12.3 nM | 13 nM | – | – | C[C@@H]1CN(c2nccc3oc(-c4cnc5ccc(O[C@H]6C[C@H](N)C6)nn45)cc23)CCO1 [III-122, trans-3-[(3-{4-[(2R)-2-methylmorpholin-4-yl]furo[3,2-c]pyridin-2-yl}imidazo[1,2-b]pyridazin-6-yl)oxy]cyclobutanamine]
7 | 2.2 nM | 0.5 nM | – | – | C[C@H]1CN(c2nccc3oc(-c4cnc5ccc(OC[C@H]6CCC(=O)N6)nn45)cc23)CCO1 [III-123, (5R)-5-{[(3-{4-[(2S)-2-methylmorpholin-4-yl]furo[3,2-c]pyridin-2-yl}imidazo[1,2-b]pyridazin-6-yl)oxy]methyl}pyrrolidin-2-one]
8 | 16.8 nM | 13.9 nM | – | – | C[C@@H](N)COc1ccc2ncc(-c3cc4c(N5CCOC(C)(C)C5)nccc4o3)n2n1 [III-124, (2R)-1-({3-[4-(2,2-dimethylmorpholin-4-yl)furo[3,2-c]pyridin-2-yl]imidazo[1,2-b]pyridazin-6-yl}oxy)propan-2-amine]
9 | 7.4 nM | 7.1 nM | – | – | C[C@@H]1CN(c2nccc3oc(-c4cnc5ccc(OC[C@@H]6CCC(=O)N6)nn45)cc23)CCO1 [III-125, (5S)-5-{[(3-{4-[(2R)-2-methylmorpholin-4-yl]furo[3,2-c]pyridin-2-yl}imidazo[1,2-b]pyridazin-6-yl)oxy]methyl}pyrrolidin-2-one]
10 | 5.3 nM | 2.6 nM | – | – | CC1(C)CN(c2nccc3oc(-c4cnc5ccc(OCC(F)(F)F)nn45)cc23)CCN1 [III-126, 3-[4-(3,3-dimethylpiperazin-1-yl)furo[3,2-c]pyridin-2-yl]-6-(2,2,2-trifluoroethoxy)imidazo [1,2-b]pyridazine]
11 | 12.8 nM | 11.8 nM | – | – | C[C@H](N)COc1ccc2ncc(-c3cc4c(N5CCOC(C)(C)C5)nccc4o3)n2n1 [III-128, (2S)-1-({3-[4-(2,2-dimethylmorpholin-4-yl)furo[3,2-c]pyridin-2-yl]imidazo[1,2-b]pyridazin-6-yl}oxy)propan-2-amine]
12 | 16.8 nM | 14.1 nM | – | – | CC1(C)CN(c2nccc3oc(-c4cnc5ccc(O[C@H]6C[C@H](N)C6)nn45)cc23)CCO1 [III-129, trans-3-({3-[4-(2,2-dimethylmorpholin-4-yl)furo[3,2-c]pyridin-2-yl]imidazo[1,2-b]pyridazin-6-yl}oxy)cyclobutanamine]
13 | 5.3 nM | 1.5 nM | – | – | COc1ccc2ncc(-c3cc4c(N5CCNC(C)(C)C5)nccc4o3)n2n1 [III-130, 3-[4-(3,3-dimethylpiperazin-1-yl)furo[3,2-c]pyridin-2-yl]-6-methoxy-imidazo[1,2-b]pyridazine]
14 | 11.9 nM | 7 nM | – | – | CC1(C)CN(c2nccc3oc(-c4cnc5ccc(OCCCS(C)(=O)=O)nn45)cc23)CCN1 [III-131, 3-[4-(3,3-dimethylpiperazin-1-yl)furo[3,2-c]pyridin-2-yl]-6-[3-(methylsulfonyl)propoxy] imidazo[1,2-b]pyridazine]
15 | 6.8 nM | 2.5 nM | – | – | CC1(C)CN(c2nccc3oc(-c4cnc5ccc(OC[C@@H]6CCC(=O)N6)nn45)cc23)CCO1 [III-132, (5S)-5-[({3-[4-(2,2-dimethylmorpholin-4-yl)furo[3,2-c]pyridin-2-yl]imidazo[1,2-b]pyridazin-6-yl}oxy)methyl]pyrrolidin-2-one]
16 | 2.7 nM | 13.1 nM | – | – | COc1ccc2ncc(-c3cc4c(N5CCN[C@@H](C)C5)nccc4o3)n2n1 [III-133, 6-methoxy-3-{4-[(3S)-3-methylpiperazin-1-yl]furo[3,2-c]pyridin-2-yl}imidazo[1,2-b]pyridazine]
17 | 2 nM | 1 nM | – | – | CC1(C)CN(c2nccc3oc(-c4cnc5ccc(OC[C@@H]6CCC(=O)N6)nn45)cc23)CCN1 [III-134, (5S)-5-[({3-[4-(3,3-dimethylpiperazin-1-yl)furo[3,2-c]pyridin-2-yl]imidazo[1,2-b]pyridazin-6-yl}oxy)methyl]pyrrolidin-2-one]
18 | 30.1 nM | 12.9 nM | – | – | CC1(C)CN(c2nccc3oc(-c4cnc5ccc(OCCCS(C)(=O)=O)nn45)cc23)CCO1 [III-135, 3-[4-(2,2-dimethylmorpholin-4-yl)furo[3,2-c]pyridin-2-yl]-6-[3-(methylsulfonyl)propoxy] imidazo[1,2-b]pyridazine]
19 | 52.5 nM | 122 nM | – | – | COC[C@@H]1CCCN1c1nccc2oc(-c3cnc4ccc(O[C@H](C)CN)nn34)cc12 [III-136, (2R)-2-[(3-{4-[(2S)-2-(methoxymethyl)pyrrolidin-1-yl]furo[3,2-c]pyridin-2-yl}imidazo[1,2-b]pyridazin-6-yl)oxy]propan-1-amine]
20 | 2.7 nM | 0.6 nM | – | – | CCN(CCOC)c1nccc2oc(-c3cnc4ccc(OCCC[S@@](C)(=O)=NC#N)nn34)cc12 [III-137, [{3-[(3-{4-[ethyl(2-methoxyethyl)ami-no]furo[3,2-c]pyridin-2-yl}imidazo[1,2-b]pyridazin-6-yl)oxy]propyl}(methyl)oxido-λ^6-sulfanylidene]cyanamide]
21 | 3 nM | 1.7 nM | – | – | CCN(CCOC)c1nccc2oc(-c3cnc4ccc(OC[C@@H]5CCCN5)nn34)cc12 [III-139, N-ethyl-N-(2-methoxyethyl)-2-{6-[(2S)-pyrrolidin-2-ylmeth-oxy]imidazo[1,2-b]pyridazin-3-yl}furo[3,2-c]pyridin-4-amine]
22 | 3.3 nM | 1.4 nM | – | – | CC1(C)CN(c2nccc3oc(-c4cnc5ccc(OC[C@H]6CCC(=O)N6)nn45)cc23)CCN1 [III-141, (5R)-5-[({3-[4-(3,3-dimethylpiperazin-1-yl)furo[3,2-c]pyridin-2-yl]imidazo[1,2-b]pyridazin-6-yl}oxy)methyl]pyrrolidin-2-one]
23 | 1.6 nM | 0.5 nM | – | – | CC1(C)CN(c2nccc3oc(-c4cnc5ccc(OC[C@H]6CCC(=O)N6)nn45)cc23)CCO1 [III-142, (5R)-5-[({3-[4-(2,2-dimethylmorpholin-4-yl)furo[3,2-c]pyridin-2-yl]imidazo[1,2-b]pyridazin-6-yl}oxy)methyl]pyrrolidin-2-one]
24 | 3.7 nM | 10 nM | – | – | C[C@H]1CN(c2nccc3oc(-c4cnc5ccc(OCCCS(C)(=O)=O)nn45)cc23)CCN1 [III-143, 3-{4-[(3S)-3-methylpiperazin-1-yl]furo[3,2-c]pyridin-2-yl}-6-[3-(methylsulfonyl)propoxy] imidazo[1,2-b]pyridazine]
25 | 4.6 nM | 6.7 nM | – | – | COc1ccc2ncc(-c3cc4c(N5CCN[C@H](C)C5)nccc4o3)n2n1 [III-144, 6-methoxy-3-{4-[(3R)-3-methylpiperazin-1-yl]furo[3,2-c]pyridin-2-yl}imidazo[1,2-b]pyridazine]
26 | 9.7 nM | 24 nM | – | – | C[C@H]1CN(c2nccc3oc(-c4cnc5ccc(OCC(F)(F)F)nn45)cc23)CCN1 [III-145, 3-{4-[(3S)-3-methylpiperazin-1-yl]furo[3,2-c]pyridin-2-yl}-6-(2,2,2-trifluoroethox-y)imidazo[1,2-b]pyridazine]
27 | 27 nM | 8.7 nM | – | – | COc1ccc2ncc(-c3cc4c(N5CCOC(C)(C)C5)nccc4o3)n2n1 [III-146, 3-[4-(2,2-dimethylmorpholin-4-yl)furo[3,2-c]pyridin-2-yl]-6-methoxy-imidazo[1,2-b]pyridazine]
28 | – | – | 5 nM | 12 nM | CC(=O)N1CCC[C@H]1CCOc1ccc2ncc(-c3cc4cnccc4o3)n2n1 [IV-1, 1-[(2S)-2-(2-{[3-(Furo[3,2-c]pyridin-2-yl)imidazo[1,2-b]pyridazin-6-yl]oxy}ethyl)pyrrolidin-1-yl]ethanone]
29 | – | – | 11 nM | 26 nM | COc1nccc2oc(-c3cnc4ccc(OCCC5CCC(=O)N5)nn34)cc12 (stereo not drawn) [IV-2, 5-(2-{[3-(4-Methoxyfuro[3,2-c]pyridin-2-yl)imidazo[1,2-b]pyridazin-6-yl]oxy}-ethyl)pyrrolidin-2-one]
30 | – | – | 10 nM | 28 nM | COc1nccc2oc(-c3cnc4ccc(OC[C@@H]5CCC(=O)N5)nn34)cc12 [IV-3, (5S)-5-({[3-(4-Methoxyfuro[3,2-c]pyridin-2-yl)imidazo[1,2-b]pyridazin-6-yl]-oxy}methyl)pyrrolidin-2-one]
